According to patent EP2725026A1, “Heterocyclic neoflavonoids with taste masking properties” (Symrise AG, priority 2012, dated 2014):

Key:
Assay type in all cases: in vivo
[1] = Bitterness reduction of a bitter substance solution (expert sensory panel), naringin; conditions: 100 ppm Naringin; for Bitter-Eindruck (1-10) mit Testsubstanz: scale 1 [nicht bitter] to 10 [extrem bitter]
Source text: (§1) Um die Reduzierung (d.h. die Maskierung oder Verminderung) des Bitter-Eindrucks in einer Probe zu quantifizieren, wurde die Bitterkeit einer Lösung enthaltend 500 ppm Coffein oder 300 ppm Theobromin oder 100 ppm Naringin von einer Expertengruppe jeweils mit einer Probe verglichen, die 500 ppm Coffein oder 300 ppm Theobromin oder 100 ppm Naringin und zusätzlich die jeweils angegebene Menge einer (hinsichtlich der Fähigkeit zur Bitter-Reduzierung) zu beurteilenden Substanz enthielt (Einstufung: 1 [nicht bitter] bis 10 [extrem bitter]). Für die Auswertung, d.h. die Berechnung der Reduktion (in %) des Bittereindrucks wurden jeweils die Durchschnittswerte der Einschätzungen der Expertengruppe verwendet. Die Ergebnisse sind in Tabelle 1 zusammengefasst: Tabelle 1 Bitter-reduzierung einer Bitterstofflösung

[2] = Bitterness reduction of a bitter substance solution (expert sensory panel), caffeine; conditions: 500 ppm Coffein; for Bitter-Eindruck (1-10) mit Testsubstanz: scale 1 [nicht bitter] to 10 [extrem bitter]
Source text: as §1

[3] = Bitterness reduction of a bitter substance solution (expert sensory panel), theobromine; conditions: 25 ppm test substance, 300 ppm Theobromin; for Bitter-Eindruck (1-10) mit Testsubstanz: scale 1 [nicht bitter] to 10 [extrem bitter]
Source text: as §1

| SMILES | % Reduktion des Bitter-Eindrucks (Signifikanz) ([1]; 25 ppm test substance, p < 0,0001) | Bitter-Eindruck (1-10) mit Testsubstanz ([1]; 25 ppm test substance, without test substance 6,6 ± 2,0) | % Reduktion des Bitter-Eindrucks (Signifikanz) ([2]; 10 ppm test substance, p < 0,0007) | Bitter-Eindruck (1-10) mit Testsubstanz ([2]; 10 ppm test substance, without test substance 3,8 ± 1,3) | Bitter-Eindruck (1-10) mit Testsubstanz ([3]; without test substance 3,6 ± 2,0) | % Reduktion des Bitter-Eindrucks (Signifikanz) ([3]; without test substance 3,6 ± 2,0, p < 0,25) | % Reduktion des Bitter-Eindrucks (Signifikanz) ([1]; 50 ppm test substance, p < 0,02) | Bitter-Eindruck (1-10) mit Testsubstanz ([1]; 50 ppm test substance, without test substance 5,0 ± 2,0) | % Reduktion des Bitter-Eindrucks (Signifikanz) ([2]; 50 ppm test substance, p < 0,35) | Bitter-Eindruck (1-10) mit Testsubstanz ([2]; 50 ppm test substance, without test substance 3,5 ± 1,4) | Bitter-Eindruck (1-10) mit Testsubstanz ([3]; without test substance 4,2 ± 2,2) |
| --- | --- | --- | --- | --- | --- | --- | --- | --- | --- | --- | --- |
| O=C1C[C@@H](c2ccncc2)c2c(O)cc(O)cc2O1 (racemic) [(1) + (2), (4S)-5,7-dihydroxy-4-(4-pyridyl)chroman-2-on (1) und (4R)-5,7-dihydroxy-4-(4-pyridyl)chroman-2-on (2)] | 52,1 % (p < 0,0001) | 3,2 + 1,5 | 37,0 % (p < 0,0007) | 2,4 + 1,0 | 2,9 ± 1,4 | 19,4 % (p < 0,25) |  |  |  |  |  |
| O=C1C[C@@H](c2cccnc2)c2c(O)cc(O)cc2O1 (racemic) [(3) + (4), (4S)-5,7-dihydroxy-4-(3-pyridyl)chroman-2-on (3) und (4R)-5,7-dihydroxy-4-(3-pyridyl)chroman-2-on (4)] |  |  |  |  |  |  | 34,1 % (p < 0,02) | 3,3 ± 1,8 | 13,7% (p < 0,35) | 3,1 ± 1,7 | 3,4 ± 1,8 |
